1 compound from PMC10472371, “Discovery of E2730, a novel selective uncompetitive GAT1 inhibitor, as a candidate for anti‐seizure medication” (Epilepsia Open, 2023) can be followed below.

The structures appear in SMILES notation.

For the assay, the target named is T1, rat brain synaptosomal membranes (Rattus norvegicus, UniProt P23978).
T1 construct: Synaptosomal membranes were prepared using the whole brain without cerebellum, brainstem, or olfactory bulb; from tissue; host or cells: rat whole brain without cerebellum, brainstem or olfactory bulb; synaptosomal membranes
Put plainly: Competitive displacement of [3H]E2730 binding with ASMs. Particulars: 20 nM [3H]E2730; unlabeled E2730 0.1-10 μM; ASMs at 10-3000 μM. The procedure: Unlabeled E2730 (0.1–10 μM) was also assessed to confirm a representative displacement. Non‐specific binding was defined as the residual binding observed in the presence of 1 mM unlabeled E2730. Radioactivity of the synaptosome‐bound radioligand was measured in the same way as described above.

With `NS(=O)(=O)N[C@H]1c2c(F)cc(F)cc2CC1(F)F` [E2730], the “displacement of [3H]E2730 binding” value is “displaced the radiolabeled [^3H]E2730 in a concentration‐dependent manner”.
